From publication PMC12481029, “Design, synthesis, antiproliferative assessments, and computational studies of new quinolin-2(1H)-ones as dual EGFR/HER-2 inhibitors” (Frontiers in Chemistry, 2025)
“And” between values parts separate entries of the source, which are not always exact repeats. Identical values can stand only once. Like-named read-outs stand apart in the source and are kept apart here.

Key:
EGFR = EGFR (Homo sapiens, UniProt P00533); assay: EGFR inhibitory assay (EGFR-TK test); details: EGFR inhibition IC50 ± SEM
Description: 5ʹ upstream to the EGFR sequence comprised a sequence that encoded (His)6. Sf-9 cells were infected for 72h for protein expression. The pellets of Sf-9 cells were solubilized in a buffer containing sodium vanadate (100 μM), aprotinin (10 μg/mL), triton (1%), HEPES buffer(50mM), ammonium molybdate (10 μM), benzamidine HCl (16 μg/mL), NaCl (10 mM),leupeptin (10 μg/mL) and pepstatin (10 μg/mL) at 0°C for 20 min at pH 7.4, followed by centrifugation for 20 min. To eliminate the nonspecifically bound material, a Ni-NTA super flow packed column was used to pass through and wash the crude extract supernatant first with 10mM and then with 100 mM imidazole. Histidine-linked proteins were first eluted with 250 and then with 500 mM imidazole subsequent to dialysis against NaCl (50 mM), HEPES (20 mM), glycerol (10%) and 1 μg/mL each of aprotinin, leupeptin and pepstatin for 120 min. The purification was performed either at 4 °C or on ice. To record autophosphorylation level, EGFR kinase assay was carried out on the basis of DELFIA/Time-Resolved Fluorometry. […] Each compound (10 μL) was incubated with recombinant enzyme (10 μL, 5 ng for EGFR, 1:80 dilution in 100 mM HEPES) for 10 min at 25 °C, subsequent to the addition of 5X buffer (10 μL, containing 2 mM MnCl2, 100 μM Na3VO4, 20 mM HEPES and 1 mM DTT) and ATP-MgCl2 (20 μL, containing 0.1 mM ATP and 50 mM MgCl2) and incubation for 1h. The negative and positive controls were included in each plate by the incubation of enzyme either with or without ATP-MgCl2. The liquid was removed after incubation and the plates were washed thrice using a wash buffer. The Europium-tagged antiphosphotyrosine antibody (75 μL, 400 ng) was added to each well followed by incubation of 1h and then washing of the plates using buffer. […] The autophosphorylation percentage inhibition by compounds was calculated using the following equation:
The majority of signals detected by antiphosphotyrosine antibody were from EGFR because the enzyme preparation contained low impurities.

[1] = test system: four human cancer cell lines (A-549, MCF-7, Panc-1, HT-29); assay: Antiproliferative assay, average over four cancer cell lines; type: cell-based; details: for GI50: Homo sapiens, average IC50 over the four cancer cell lines
Bcl-2 = Bcl-2 level assay; details: MCF-7 cells; for Bcl-2 Fold reduction: versus control
Description: Mix all reagents thoroughly without foaming before use. Wash the microwells twice with approximately 300 μL Wash Buffer per well with thorough aspiration of microwell contents between washes. Take caution not to scratch the surface of the microwells. After the last wash, empty the wells and tap microwell strips on absorbent pad or paper towel to remove excess Wash Buffer. Use the microwell strips immediately after washing or place upside down on a wet absorbent paper for not longer than 15 minutes. […] Add 100 μL of Sample Diluent in duplicate to all standard wells and to the blank wells. […] Add 100 μL of Sample Diluent, in duplicate, to the blank wells. Add 80 μL of Sample Diluent, in duplicate, to the sample wells. Add 20 μL of each Sample, in duplicate, to the designated wells. Add 50 μL of diluted biotin-conjugate to all wells, including the blank wells. Cover with a plate cover and incubate at room temperature, on a microplate shaker at 100 rpm if available, for 2 hours. Remove plate cover and empty the wells. Wash microwell strips 3 times as described in step 2. Add 100 μL of diluted Streptavidin-HRP to all wells, including the blank wells. Cover with a plate cover and incubate at room temperature, on a microplate shaker at 100 rpm if available, for 1 hour. Remove plate cover and empty the wells. Wash microwell strips 3 times as described in step 2. […] Pipette 100 μl of mixed TMB Substrate Solution to all wells, including the blanks. Incubate the microwell strips at room temperature (18° to 25°C) for about 15 minutes, if available on a rotator set at 100 rpm. Avoid direct exposure to intense light. The point, at which the substrate reaction is stopped, is often determined by the ELISA reader. Many ELISA readers record absorbance only up to 2.0 O.D. Therefore, the color development within individual microwells must be watched by the person running the assay and the substrate reaction stopped before positive wells are no longer properly detectable. Stop the enzyme reaction by quickly pipetting 100 μL of Stop Solution into each well, including the blank wells. It is important that the Stop Solution is spread quickly and uniformly throughout the microwells to completely inactivate the enzyme. Results must be read immediately after the Stop Solution is added or within one hour if the microwell strips are stored at 2 - 8°C in the dark. Read absorbance of each microwell on a spectrophotometer using 450 nm as the primary wavelength.

Caspase-3 = Caspase-3 activation assay; type: cell-based, human; details: MCF-7 cells; for Caspase-3 Fold change: versus control
Description: (§1) Refer to Supplementary Appendix A.
Allow all reagents to reach room temperature before use. Gently mix all liquid reagents prior to use. Determine the number of 8-well strips needed for the assay. Insert these in the frame(s) for current use. Add 100 μl of the Standard Diluent Buffer to the zero standard wells. Well(s) reserved for chromogen blank should be left empty. Add 100 μl of standards and controls or diluted samples to the appropriate microtiter wells. The sample dilution chosen should be optimized for each experimental system. Tap gently on side of plate to mix. Cover wells with plate cover and incubate for 2 hours at room temperature. Thoroughly aspirate or decant solution from wells and discard the liquid, Wash wells 4 times. […] Tap gently on the side of the plate to mix. Cover plate with plate cover and incubate for 1 hour at room temperature. Thoroughly aspirate or decant solution from wells and discard the liquid, Wash wells 4 times. Add 100 μl Anti-Rabbit IgG HRP Working Solution to each well except the chromogen blank(s). Prepare the working dilution as described in Preparing IgG HRP. Cover wells with the plate cover and incubate for 30 minutes at room temperature. Thoroughly aspirate or decant solution from wells and discard the liquid. Wash wells 4 times. Add 100 μl of Stabilized Chromogen to each well. The liquid in the wells will begin to turn blue. Incubate for 30 minutes at room temperature and in the dark. The incubation time for chromogen substrate is often determined by the microtiter plate reader used. Many plate readers have the capacity to record a maximum optical density (O.D.) of 2.0. The O.D. values should be monitored, and the substrate reaction stopped before the O.D. of the positive wells exceeds the limits of the instrument. The O.D. values at 450 nm can only be read after the Stop Solution has been added to each well. […] Add 100 μl of Stop Solution to each well. Tap side of plate gently to mix. The solution in the wells should change from blue to yellow. Read the absorbance of each well at 450 nm having blanked the plate reader against a chromogen blank composed of 100 μl each of Stabilized Chromogen and Stop Solution. Read the plate within 2 hours after adding the Stop Solution. Use a curve fitting software to generate the standard curve. […] Read the concentrations for unknown samples and controls from the standard curve. Multiply value(s) obtained for sample(s) by the appropriate dilution factor to correct for the dilution in step 3.

Caspase-8 = Caspase-8 activation assay; type: cell-based, human; details: MCF-7 cells; for Caspase-8 Fold change: versus control
Description: as §1
(§2) (Cells are Plated in a density of 1.2 – 1.8 × 10,000 cells/well in a volume of 100µl complete growth medium + 100 ul of the tested compound per well in a 96-well plate for 24 hours before the enzyme assay for Tubulin.). The absorbance of each microwell was read on a spectro-photometer at 450 nm. A standard curve is prepared from 7human Caspase-8 standard dilutions and human Caspase-8 concentration determined.

[2] = test system: breast (MCF-7) cancer cell line; assay: Antiproliferative assay, MCF-7; type: cell-based; details: Homo sapiens, MCF7; read-out: Antiproliferative activity IC50 ± SEM, MCF-7
From the text: (§3) The MTT assay ([Al-Wahaibi et al., 2022]; [Mahmoud et al., 2023]) was employed to assess the antiproliferative effects of compounds 3a-h and 5a-g on four human cancer cell lines: colon (HT-29) cancer, pancreatic (Panc-1) cancer, lung (A-549) cancer, and breast (MCF-7) cancer cell lines. Erlotinib was applied as a reference. Table 1 presents the median inhibitory concentration (IC50) and average IC50 (GI50) values for each compound evaluated on the four cancer cell lines.
(§4) Compounds 3a-h and 5a-g were tested for their antiproliferative activities on four human cancer cell lines: colon (HT-29), pancreatic (Panc-1), lung (A-549), and breast (MCF-7) using the MTT assay ([Al-Wahaibi et al., 2022]; [Mahmoud et al., 2023]). Erlotinib was applied as a reference.
(§5) To explore the antiproliferative potential of compounds propidium iodide fluorescence assay was performed using different cell lines such as Panc-1 (pancreas cancer cell line), MCF-7 (breast cancer cell line), HT-29 (colon cancer cell line) and A-549 (epithelial cancer cell line), respectively. To calculate the total nuclear DNA, a fluorescent dye (propidium iodide, PI) is used which can attach to the DNA, thus offering a quick and precise technique. PI cannot pass through the cell membrane and its signal intensity can be considered as directly proportional to quantity of cellular DNA. Cells whose cell membranes are damaged or have changed permeability are counted as dead ones. The assay was performed by seeding the cells of different cell lines at a density of 3000-7500 cells/well (in 200μl medium) in culture plates followed by incubation for 24h at 37 °C in humidified 5%CO2/95% air atmospheric conditions. The medium was removed; the compounds were added to the plates at 10 μM concentrations (in 0.1% DMSO) in triplicates, followed by incubation for 48h. DMSO (0.1%) was used as control. After incubation, medium was removed followed by the addition of PI (25 μl, 50μg/mL in water/medium) to each well of the plates. At -80 °C, the plates were allowed to freeze for 24 h, followed by thawing at 25 °C. A fluorometer (Polar-Star BMG Tech) was used to record the readings at excitation and emission wavelengths of 530 and 620 nm for each well. The percentage cytotoxicity of compounds was calculated using the following formula: […]

[3] = test system: lung (A-549) cancer cell line; assay: Antiproliferative assay, A-549; type: cell-based; details: Homo sapiens, A549; read-out: Antiproliferative activity IC50 ± SEM, A-549
From the text: as §3, §4, §5

[4] = test system: MCF-7 human breast cancer cell line; assay: Flow cytometric cell cycle analysis; type: cell-based
[5] = test system: colon (HT-29) cancer cell line; assay: Antiproliferative assay, HT-29; type: cell-based; details: Homo sapiens, read-out: Antiproliferative activity IC50 ± SEM, HT-29
[6] = test system: pancreatic (Panc-1) cancer cell line; assay: Antiproliferative assay, Panc-1; type: cell-based; details: Homo sapiens, read-out: Antiproliferative activity IC50 ± SEM, Panc-1
From the text: as §3, §4, §5

Bax = Bax level assay; details: MCF-7 cells; for Bax Fold change: versus control
Description: Bring all reagents, except the human Bax-α Standard, to room temperature for at least 30 minutes prior to opening. The human Bax-α Standard solution should not be left at room temperature for more than 10 minutes. All standards, controls and samples should be run in duplicate. Refer to the Assay Layout Sheet to determine the number of wells to be used and put any remaining wells with the desiccant back into the pouch and seal the ziploc. Store unused wells at 4 °C. Pipet 100 μL of Assay Buffer into the S0 (0 pg/mL standard) wells. Pipet 100 μL of Standards #1 through #6 into the appropriate wells. Pipet 100 μL of the Samples into the appropriate wells. Tap the plate gently to mix the contents. Seal the plate and incubate at room temperature on a plate shaker for 1 hour at ~500 rpm. Empty the contents of the wells and wash by adding 400 μL of wash solution to every well. Repeat the wash 4 more times for a total of 5 washes. After the final wash, empty or aspirate the wells and firmly tap the plate on a lint free paper towel to remove any remaining wash buffer. Pipet 100 μL of yellow Antibody into each well, except the Blank. Seal the plate and incubate at room temperature on a plate shaker for 1 hour at ~500 rpm. Empty the contents of the wells and wash by adding 400 μL of wash solution to every well. Repeat the wash 4 more times for a total of 5 washes. After the final wash, empty or aspirate the wells and firmly tap the plate on a lint free paper towel to remove any remaining wash buffer. Add 100 μL of blue Conjugate to each well, except the Blank. Seal the plate and incubate at room temperature on a plate shaker for 30 minutes at ~500 rpm. Empty the contents of the wells and wash by adding 400 μL of wash solution to every well. Repeat the wash 4 more times for a total of 5 washes. After the final wash, empty or aspirate the wells and firmly tap the plate on a lint free paper towel to remove any remaining wash buffer. Pipet 100 μL of Substrate Solution into each well. Incubate for 30 minutes at room temperature on a plate shaker at ~500 rpm. Pipet 100 μL Stop Solution to each well. Blank the plate reader against the Blank wells, read the optical density at 450 nm. Calculate the average net Optical Density (OD) bound for each standard and sample by subtracting the average Blank OD from the average OD for each standard and sample. Using linear graph paper, plot the Average Net OD for each standard versus Bax concentration in each standard. Approximate a straight line through the points. The concentration of Bax in the unknowns can be determined by interpolation.

Caspase-9 = Caspase-9 activation assay; type: cell-based, human; details: MCF-7 cells; for Caspase-9 Fold change: versus control
Description: To elucidate the apoptotic mechanism of compounds 3d and 5a, whether via the intrinsic or extrinsic pathway, their impact on caspase-8 and caspase-9 was evaluated.
RPMI 1640 with 10% FBS was used to assist the cells grow at 37 °C, and then the cells were treated with the compounds being studied to check the activity of caspase-3, -8, and -9 ([Hisham et al., 2019]). Refer to Supplementary Appendix A.
as §2, with “Cells were obtained from American Type Culture Collection, cells were grown in RPMI 1640 containing 10% fetal bovine serum at 37°C, stimulated with the compounds to be tested for caspase8, and lysed with Cell Extraction Buffer. This lysate was diluted in Standard Diluent Buffer over the range of the assay and measured for human active caspase-8 content. (Cells” for “(Cells”

HER-2 = HER-2 (Homo sapiens, UniProt P04626); assay: HER-2 inhibitory assay (ADP-Glo kinase assay)
Description: The ADP-Glo™ Kinase Assay was used for kinase activity detection, related kinases information: HER-2 (ab60866, Abcam), with a concentration of 100 ng/mL. Target compounds were dissolved in DMSO to obtain drug solutions with different concentrations, and the compound concentrations in the final reaction system (100 μL) were 1 nM, 20 nM, 40 nM, 80 nM, and 100 nM, respectively. 10μL of the solution containing compounds was transferred to a 96-well plate, then added 40 μL of 1 × kinase buffer (50 mM HEPES, pH 7.5) to each well, and mixed the mixture in the 96-well plate on a shaker for 10 min. Next, added 25 μL of ADP-Glo™ reagent to the above wells, mixed and incubated for another 40 min. Distributed 10 μL kinase detection reagent to the reaction and incubated for 30 min. Finally, the full-wavelength microplate reader was used to record the OD value.

Cytochrome C = Cytochrome C assay; details: MCF-7 cells; for Cytochrome C Fold change: versus control
Description: This lysate was diluted in Standard Diluent Buffer over the range of the assay and measured for cytochrome C content. (Cells are Plated in cells/well in a volume of 100µl complete growth medium + 100 µl of the tested compound + 50 µl of 1X biotin conjugated antibody+ 100 µl of 1X streptavidin-HRP+ 100 µL TMB substrate solution of per well in a 96-well plate for 24 hours before assay).

in vitro = details: human
Description: (§6) MTT assay was performed to investigate the effect of the synthesized compounds on mammary epithelial cells (MCF-10A). The cells were propagated in medium consisting of Ham's F-12 medium/ Dulbecco's modified Eagle's medium (DMEM) (1:1) supplemented with 10% foetal calf serum, 2 mM glutamine, insulin (10 μg/mL), hydrocortisone (500 ng/mL) and epidermal growth factor (20 ng/mL). Trypsin ethylenediamine tetra acetic acid (EDTA) was used to passage the cells after every 2-3 days. 96-well flat-bottomed cell culture plates were used to seed the cells at a density of 10^4 cells mL^-1. The medium was aspirated from all the wells of culture plates after 24 h followed by the addition of synthesized compounds (in 200 μL medium to yield a final concentration of 0.1% (v/v) dimethyl sulfoxide) into individual wells of the plates. Four wells were designated to a single compound. The plates were allowed to incubate at 37°C for 96 h. Afterwards, the medium was aspirated and 3-[4,5-dimethylthiazol-2-yl]-2,5-diphenyltetrazolium bromide (MTT) (0.4 mg/mL) in medium was added to each well and subsequently incubated for 3 h. The medium was aspirated and 150 μL dimethyl sulfoxide (DMSO) was added to each well. The plates were vortexed followed by the measurement of absorbance at 540 nm on a microplate reader.

[7] = Cell viability assay (MTT), normal mammary cells; details: human, MCF-10A normal mammary epithelial cells
Description: as §6

[8] = test system: breast (MCF-7) cancer cell line; set-up: method as in Voigtlaender et al., 2018; details: ref Voigtlaender et al., 2018, cited from earlier work; for IC50: read-out: IC50 against the MCF-7 cell line
[9] = test system: panel of cancer cell lines; set-up: method as in Voigtlaender et al., 2018; details: ref Voigtlaender et al., 2018; read-out: GI50 against a panel of cancer cell lines; cited from earlier work

Sequence of HER-2 (P04626 676-1255 limits assumed): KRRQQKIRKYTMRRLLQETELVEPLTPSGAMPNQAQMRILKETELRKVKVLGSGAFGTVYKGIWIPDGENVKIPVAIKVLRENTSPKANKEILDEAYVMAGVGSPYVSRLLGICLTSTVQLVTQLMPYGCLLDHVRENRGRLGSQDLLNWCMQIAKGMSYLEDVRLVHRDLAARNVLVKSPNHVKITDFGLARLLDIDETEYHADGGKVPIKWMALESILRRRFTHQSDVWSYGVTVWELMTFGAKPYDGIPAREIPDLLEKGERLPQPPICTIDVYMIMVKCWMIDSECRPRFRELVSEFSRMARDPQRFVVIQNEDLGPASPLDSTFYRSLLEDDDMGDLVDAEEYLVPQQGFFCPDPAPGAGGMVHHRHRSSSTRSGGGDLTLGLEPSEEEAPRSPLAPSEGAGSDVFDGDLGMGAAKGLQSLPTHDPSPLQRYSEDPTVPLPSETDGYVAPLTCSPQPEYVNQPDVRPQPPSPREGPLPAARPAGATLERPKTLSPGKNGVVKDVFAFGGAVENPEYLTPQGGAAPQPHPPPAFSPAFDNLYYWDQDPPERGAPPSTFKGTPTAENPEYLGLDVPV
Sequence of EGFR (P00533 669-1210): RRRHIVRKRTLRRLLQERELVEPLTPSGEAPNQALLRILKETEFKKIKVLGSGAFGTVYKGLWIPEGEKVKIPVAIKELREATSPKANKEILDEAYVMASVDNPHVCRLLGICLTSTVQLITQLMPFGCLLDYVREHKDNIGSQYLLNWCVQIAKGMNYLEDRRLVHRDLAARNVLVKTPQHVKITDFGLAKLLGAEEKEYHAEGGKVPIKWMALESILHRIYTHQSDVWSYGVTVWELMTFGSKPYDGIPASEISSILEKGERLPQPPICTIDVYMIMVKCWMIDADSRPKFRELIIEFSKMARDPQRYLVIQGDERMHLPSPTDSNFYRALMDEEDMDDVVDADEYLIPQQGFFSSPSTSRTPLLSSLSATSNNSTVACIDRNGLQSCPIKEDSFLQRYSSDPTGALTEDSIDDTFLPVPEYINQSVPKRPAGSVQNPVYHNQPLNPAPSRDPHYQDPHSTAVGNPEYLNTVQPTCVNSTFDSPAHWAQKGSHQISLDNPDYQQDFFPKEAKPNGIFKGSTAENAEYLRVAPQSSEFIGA

Compound | IC50 (EGFR) [nM] | GI50 [1] [nM] | Bcl-2 Conc (Bcl-2) [ng/mL] | Bcl-2 Fold reduction (Bcl-2) | Caspase-3 Conc (Caspase-3) [pg/mL] | Caspase-3 Fold change (Caspase-3) | Caspase-8 Conc (Caspase-8) [ng/mL] | Caspase-8 Fold change (Caspase-8) | IC50 [2] [nM] | IC50 [3] [nM] | IC50 [5] [nM] | IC50 [6] [nM] | Bax Conc (Bax) | Bax Fold change (Bax) | Caspase-9 Conc (Caspase-9) [ng/mL] | Caspase-9 Fold change (Caspase-9) | IC50 (HER-2) [nM] | Cytochrome C Conc (Cytochrome C) [ng/mL] | Cytochrome C Fold change (Cytochrome C) | IC50 [8] [nM] | other results
O=c1[nH]c2ccccc2c(O)c1/C=N/Nc1ccc([N+](=O)[O-])cc1[N+](=O)[O-] [Compound 5a, (E)-3-((2-(2,4-Dinitrophenyl)hydrazono)methyl)-4-hydroxyquinolin-2(1H)-one] | 87 ± 5 | 37 | 0.70 | 7 | 570 ± 5 | 9.0 | 2.65 ± 0.25 | 29 | 34 ± 3 | 36 ± 3 | 38 ± 3 | 38 ± 3 | 320 pg/mL and 320 ± 2 pg/mL | 35 | 24 ± 1 | 24 | 33 ± 2 | 0.85 | 17 |  | Fold less effective than erlotinib (GI50) [1]: 1.2; Percentage of cells in G2/M phase [4]: 1.94%; Percentage of cells in S phase ([4]; control 26.82%): 15.65%; Times less potent than lapatinib, HER-2 inhibition (HER-2; ratio to lapatinib IC50): 1.3; viability at 4 days, 50 µM (in vitro): 88%
Cc1ccc(S(=O)(=O)N/N=C/c2c(O)c3ccccc3[nH]c2=O)cc1 [Compound 3d, (E)-N'-((4-hydroxy-2-oxo-1,2-dihydroquinolin-3-yl)methylene)-4-methyl benzenesulfonohydrazide] | 91 ± 6 | 41 | 0.80 | 6 | 515 ± 5 | 8.0 | 2.10 ± 0.20 | 23 | 37 ± 3 | 40 ± 3 | 42 ± 4 | 43 ± 4 | 310 pg/mL and 310 ± 2 pg/mL | 34 | 21 ± 3 | 21 | 38 ± 2 | 0.65 | 13 |  | Fold less effective than erlotinib (GI50) ([1]; ratio to erlotinib GI50 = […] nM): 1.3; viability at 4 days, 50 µM [7]: 91%
O=c1[nH]c2ccccc2c(O)c1/C=N/c1ccc(NS(=O)(=O)c2ncccn2)cc1 [Compound III] |  |  |  |  |  |  |  |  |  |  |  |  |  |  |  |  |  |  |  | 23 | Times more potent than erlotinib, MCF-7 ([8]; ratio of IC50 values): 1.8; GI50 [9]: 25 nM
C#Cc1cccc(Nc2ncnc3cc(OCCOC)c(OCCOC)cc23)c1 [Erlotinib, reference compound] |  |  |  |  |  |  |  |  | 40 ± 3 | 30 ± 3 | 30 ± 3 | 30 ± 3 |  |  |  |  |  |  |  | 40 | 
